Values quoted from earlier work, collected in patent publication US20220296868A1, “INTRACRANIAL DELIVERY OF MEDICINAL SOLUTION” (InCube Labs, LLC, priority 2019, published 2022).

Experiments:
[1] = hydrochloride salt of topotecan
[2] = tested on: plasma proteins
[3] = in vitro, human liver microsomes
[4] = tested on: white blood cell count; settings: in vivo
[5] = not given; remark: listed apart in the source

- lactone form (pH≤4): exclusively present
- ring-opened hydroxy-acid form (physiologic pH): predominates
- solubility in water [1]: freely soluble
- binding to plasma proteins [2]: about 35%
- mean metabolite:parent AUC ratio ([5]; N-demethylated metabolite, total topotecan and topotecan lactone, following IV administration): about 3%
- total exposure (AUC) versus dose ([5]; cancer subjects, 0.5 to 1.5 mg/m^2 as 30-minute IV infusion): approximately dose-proportional
Structure (SMILES): CC[C@@]1(O)C(=O)OCc2c1cc1n(c2=O)Cc2cc3c(CN(C)C)c(O)ccc3nc2-1 [topotecan]
- metabolism [3]: metabolized to an Ndemethylated metabolite
- dose-limiting toxicity [4]: leukopenia
